In experiment [1] the test system is Rattus norvegicus. The experiment is described as follows: Compound was tested for mean arterial pressure in the spontaneously hypertensive rat, activity expressed as mean arterial pressure before peroral administration of 0.17 mg/Kg dose. It counts as functional, Artery.
Experiment [2] deals with Rattus norvegicus. The experiment is described as follows: Compound was tested for mean arterial pressure in the spontaneously hypertensive rat, activity expressed as maximum % change in pressure after 3 hours of oral administration of 1.5 mg/Kg. It counts as functional, Artery.

For `CC1(C)Oc2ccc(OC(F)(F)F)cc2[C@@H](NC(=O)c2ccco2)[C@@H]1O`, the “Mean arterial blood pressure” value in experiment [1] was found to be 175 mmHg. The Change in experiment [2] is given as -30%.

As to `CC1(C)c2ccc(C#N)cc2[C@@H](NC(=O)c2ccco2)[C@@H]1O`, the “Mean arterial blood pressure” value in experiment [1] turned out to be 182 mmHg. Besides, the Change in experiment [2] is -35%.

`CC1(C)Oc2ccc(C#N)cc2[C@@H](N2Cc3ccccc3C2=O)[C@@H]1O`: the “Mean arterial blood pressure” value in experiment [1] is 173 mmHg. Moreover, the Change in experiment [2] was -23%.

`CC1(C)Oc2ccccc2[C@@H](N2Cc3ccccc3C2=O)[C@@H]1O`: the “Mean arterial blood pressure” value in experiment [1] came out at 184 mmHg. In addition, the Change in experiment [2] is -26%.

For `CC1(C)Oc2ccc(OC(F)(F)F)cc2[C@@H](N2Cc3ccccc3C2=O)[C@@H]1O` [CELIKALIM], the “Mean arterial blood pressure” value in experiment [1] was 180 mmHg. Besides, the Change in experiment [2] is -28%.

For the compound `CC1(C)Oc2ccc(C#N)cc2[C@@H](N2CCCC2=O)[C@@H]1O` [CROMAKALIM], the “Mean arterial blood pressure” value in experiment [1] was found to be 171 mmHg. In experiment [2], the Change is given as -28%.

The values above are taken from ChEMBL document CHEMBL1125958, “Antihypertensive benzopyran-related potassium channel activators: a role for lipophilicity” (Bioorg Med Chem Lett, 1991).
